# Source: the supplement of paper PMC5844555
# Tests used:
# Experiment in all cases: 3' UTR reporter interaction score (median-centred robust z-score of log2 firefly/Renilla activity); higher = less repression of the 3' UTR reporter
# Settings in all cases: HEK293T; 48 h
# BRCA2 = tested on: BRCA2
# Outline: (§1)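 Using DharmaFECT Duo, HEK293T cells (10,000/well, 96-well plates) were co-transfected with 2.5 pmol miRNA mimic, 100 ng firefly luc2P reporter containing the gene's 3' UTR and 20 ng Renilla pRL-TK control, and dual-luciferase activity was read 48 h later. The interaction score is the log firefly/Renilla ratio as a per-plate robust z-score (median, median absolute deviation), median-centred per miRNA, averaged over at least two independent screens; lower, more negative values indicate interaction.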
# EZH2 = tested on: EZH2
# Outline: as §1
# FBXW7 = tested on: FBXW7
# Outline: as §1
# HRAS = tested on: HRAS
# Outline: as §1
# MYB = tested on: MYB
# Outline: as §1
# MYCN = tested on: MYCN
# Outline: as §1
# MYC = tested on: MYC
# Outline: as §1
# MYT1L = tested on: MYT1L
# Outline: as §1
# NOTCH1 = tested on: NOTCH1
# Outline: as §1
# PHF6 = tested on: PHF6
# Outline: as §1
# PHOX2B = tested on: PHOX2B
# Outline: as §1
# RB1 = tested on: RB1
# Outline: as §1
# TP53 = tested on: TP53
# Outline: as §1
# ZEB2 = tested on: ZEB2
# Outline: as §1
Sequence,3' UTR reporter interaction score (BRCA2),3' UTR reporter interaction score (EZH2),3' UTR reporter interaction score (FBXW7),3' UTR reporter interaction score (HRAS),3' UTR reporter interaction score (MYB),3' UTR reporter interaction score (MYCN),3' UTR reporter interaction score (MYC),3' UTR reporter interaction score (MYT1L),3' UTR reporter interaction score (NOTCH1),3' UTR reporter interaction score (PHF6),3' UTR reporter interaction score (PHOX2B),3' UTR reporter interaction score (RB1),3' UTR reporter interaction score (TP53),3' UTR reporter interaction score (ZEB2)
AGUGUGGCUUUCUUAGAGC,-3.13,-0.421,1.11,0.377,0.805,0.47,-0.501,-0.23,-0.152,-0.715,1.11,-0.335,-0.0434,0.748
AGUUAAUGAAUCCUGGAAAGU,-0.407,-0.175,0.0665,-0.441,0.47,0.0474,0.0217,-0.25,-0.406,-0.54,-0.662,-0.487,-0.194,0.251
AUAAGACGAGCAAAAAGCUUGU,2.27,1.23,0.133,0.557,-1.19,-0.0307,-0.771,0.212,-0.743,-0.375,-0.501,-1.39,0.501,-2.58
AUAAUACAUGGUUAACCUCUUU,-0.764,0,-0.808,-0.143,1.01,1.04,0.024,0.598,0.871,-0.737,-0.62,-0.631,-0.592,-2.7
AUCAACAGACAUUAAUUGGGCGC,1.26,1.19,1.67,1.56,0.0314,-0.34,-1.29,-0.0651,-1.2,-1.06,-0.111,1.49,-1.55,1.91
AUCACACAAAGGCAACUUUUGU,-0.664,-1.06,-0.0452,-0.777,0.989,0.776,0.0727,0.734,0.929,-0.33,0.549,0.566,-0.723,-0.747
AUCACAUUGCCAGGGAUUUCC,-1.67,0.281,0.0652,-0.452,-0.3,0.592,-0.00223,0.197,-0.492,0.394,-0.216,0.826,-1.29,2.06
AUCAGCAAACAUUUAUUGUGUG,0.0901,-1.04,-0.701,-1.06,1.62,-0.181,-0.19,-0.934,0.157,1.01,1.35,1.07,0.16,1.25
AUCAUAGAGGAAAAUCCACGU,0.121,0.733,0.0331,-1.11,-0.185,0.335,-0.578,0.0345,0.241,0.424,0.628,-0.168,0.405,-0.144
